The record followed here is US12139498B1, “Positive allosteric modulators of the muscarinic acetylcholine receptor M4” (Vanderbilt University, priority 2023, dated 2024).

SMILES strings stand for the structures. Like-named read-outs stand apart in the source and are kept apart here.

Data set [1] can be described thus: MDCK-MDR1 permeability / efflux. Format: in vitro ADME. To be noted: dog, MDCK-MDR1. On the procedure: (§1) Compound 70 was tested in several in in vitro assays to investigate both metabolism and pharmacokinetics. These assays may be performed according to known methods as generally described in the following references: Conde-Ceide et al. ACS Med. Chem. Lett. 2015, 6, 716-720; Morris et al. J. Med. Chem. 2014, 57, 10192-10197; and Bubser et al. ACS Chem. Neurosci. 2014, 5, 920-942.

Another data set has as its system MDCK-MDR1. The data set can be described thus: MDCK-MDR1 permeability / efflux. It is filed as in vitro ADME. Conditions: efflux ratio. How it is done:
as §1

The nature of data set [2]: Fraction unbound in dog plasma. It is filed as in vitro ADME. To be noted: read-out: Dog Fu (plasma). How it is done:
as §1

A short description of data set [3]: In vivo pharmacokinetics in cynomolgus monkey. Conditions: plasma. How it is done: Compound 70 was tested in several in vivo assays and the pharmacokinetic parameters listed in the following table may be determined from pharmacokinetic studies in rat, dog, or cynomolgus monkey, according to known methods as generally described in the following references: Garrison et al. J. Med. Chem. 2022, 65, 6273-6286; Felts et al. J. Med. Chem 2017, 60, 5072-5085; and Yu et al. J. Med. Chem. 2021, 64, 4709-4729.

The next data set addresses T1, Human M4 (Homo sapiens, UniProt P08173).
T1 sequence (P08173 1-479): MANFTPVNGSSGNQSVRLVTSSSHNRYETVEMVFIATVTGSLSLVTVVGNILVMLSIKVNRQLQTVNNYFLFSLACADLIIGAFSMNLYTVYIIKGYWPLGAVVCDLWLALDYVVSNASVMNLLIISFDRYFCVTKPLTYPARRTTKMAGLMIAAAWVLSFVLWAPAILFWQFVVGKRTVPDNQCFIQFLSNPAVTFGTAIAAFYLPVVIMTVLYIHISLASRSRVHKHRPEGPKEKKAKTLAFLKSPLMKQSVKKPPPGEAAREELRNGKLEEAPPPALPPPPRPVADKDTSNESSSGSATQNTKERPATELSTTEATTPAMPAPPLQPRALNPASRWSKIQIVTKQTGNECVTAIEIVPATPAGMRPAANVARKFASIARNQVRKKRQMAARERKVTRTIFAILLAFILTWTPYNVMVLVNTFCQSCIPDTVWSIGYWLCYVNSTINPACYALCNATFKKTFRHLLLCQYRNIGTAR
Kind of data set: Cellular cAMP Gi HTRF assay (agonist and potentiator modes). Format: cell-based. Details: expressed in transfected cells; host or cells: CHO cells stably expressing human M4. Conditions: n = 2. The text has this:
Activation of the M4 receptor leads to the inhibition of cAMP production by coupling to Go proteins. To measure the level of CAMP inhibition by M4 allosteric modulators, a Homogeneous Time-Resolved Fluorescence (HTRF®) CAMP assay was employed using CHO cells stably expressing human or rat M4 receptors. The HTRF CAMP assay is a Time-Resolved Resonance Energy Transfer (TR-FRET) competitive immunoassay. Endogenous intracellular CAMP generated by cells competes with Europium cryptate-labeled cAMP (Europium donor, emission […]) for the binding to a cAMP antibody labeled with d2 (d2-acceptor, emission […]). Thus, the fluorescence emission ratio (665 nm/620 nm) is inversely proportional to the CAMP amount in the cells. Compound-mediated M4 activation results in an increase in HTRF ratio (665 nm/620 nm), indicative of a decrease in intracellular cAMP level. To monitor agonist activity, compounds were added to the M4 cells in the presence of an EC80 concentration of forskolin (adenylyl cyclase activator) which induces a submaximal intracellular cAMP level. To assess potentiator activity, compounds were added to the M4 cells with an EC50 concentration of forskolin in the presence of an EC20 concentration of acetylcholine. This functional assay allows determination of the potency and efficacy of compounds directly activating or potentiating the Gi/o-coupled M4 receptor; representative data are shown in Table 3.
Functional agonist and potentiator activities of compounds were determined by measuring cAMP levels in Chinese Hamster Ovary (CHO) cells stably expressing human or rat M4 muscarinic receptors using an HTRF CAMP Gi/o kit. Cells were maintained in F12 medium containing 10% FBS, 20 mM HEPES, 1× Antibiotic/Antimycotic, and G418 (500 μg/ml) in 37° C. humidified incubators in the presence of 5% CO2. The day before assay, the cells were trypsinized and resuspended in plating medium (growth medium without G418). The cells were plated to white, solid, flat-bottomed, 384 well plates at densities of 4,000 and 6,000 cells/10 μL/well, of human M4 and rat M4 cells, respectively. The cell plates were spun at 100×g for 1 min, then immediately placed in a 37° C. incubator in the presence of 5% CO2 overnight.
The next day, reagents were freshly diluted at a 2× concentration in assay buffer using F12 basal medium or stimulation buffer. All assay buffers contained 500 μM IBMX to block cAMP degradation. Activation of M4 by compounds was examined in cells stimulated with an EC80 concentration of forskolin to induce submaximal intracellular cAMP levels. Forskolin EC80 concentrations were determined from forskolin concentration response curves (CRCs) and ranged from 1.5 to 2.5 μM. […]
A general note: In TR-FRET formats the signal depends on donor and acceptor labels being close together.

What is called Papp A→B is the apparent permeability from the apical to the basolateral side of a cell layer. The EC50 is the concentration needed to bring the measured effect to its halfway point. For the molecule `Cc1c(N2CCc3nc(C4(F)CC4)sc3C2)nc2nn(C)c(=O)n2c1C` [Compound 70, 7-(2-(1-fluorocyclopropyl)-6,7-dihydrothiazolo[5,4-c]pyridin-5(4H)-yl)-2,5,6-trimethyl-[1,2,4]triazolo[4,3-a]pyrimidin-3(2H)-one], in data set [1], the Papp A→B is 36.7 ×10⁻⁶ cm/s. The “MDCK-MDR1 ER” value with MDCK-MDR1 is reported as 0.9 (Papp A→ B:. Besides, in data set [2], the fraction unbound amounted to 0.232. In addition, in data set [3] (read-out: Cyno CLp), the clearance was 4.9 mL/min/kg. Besides, in data set [3] (read-out: Cyno Elim. t1/2 (converted)), the half-life is 4.2 h. Besides, in data set [3] (read-out: Cyno Vss), the Vd was found to be 1.4 L/kg. The “hM4_cAMP Activity Agonist % ACh Max” value at Human M4 (agonist mode, EC80 forskolin, no acetylcholine) was determined as 81 % ACh Max. Moreover, the EC50 at Human M4 (agonist mode, EC80 forskolin, no acetylcholine, read-out: hM4_cAMP Activity Agonist EC50) is 19 nM; at Human M4 (potentiator mode, forskolin plus EC20 acetylcholine, read-out: hM4_cAMP Activity PAM EC50), 11 nM. Moreover, the “hM4_cAMP Activity PAM % ACh Max” value at Human M4 (potentiator mode, forskolin plus EC20 acetylcholine) is recorded as 74 % ACh Max.
